In patent publication US20110142882A1 (priority 2009, published 2011):

System: small (about 50 μm-about 90 μm) arterioles of the cremaster muscle
Set-up: species or system male Sprague-Dawley rats
Settings: rat, in vivo

SMILES: CC[N+](CC)(CC)CCOc1cccc(OCC[N+](CC)(CC)CC)c1OCC[N+](CC)(CC)CC [gallamine triethiodide]
- effect on microvessel diameter: Significant vasoconstriction
- vasodilation over time (time-dependent effects control): No vasodilation
